Measurements reported in patent US10729740B2, “Lytic-peptide-Her2/neu (Human Epidermal growth factor Receptor 2) ligand conjugates and methods of use” (Esperance Pharmaceuticals, Inc., priority 2010, dated 2020).
Ends that are not written are not given here.

Experiments:
[1] = system: Her2 receptor positive SKOV-3 cancer cells; test: In vitro cytotoxicity, MTT assay, 48 h, SKOV-3
Method: (§1) 68) to the antibody at the C-terminus by NRVRRS (SEQ. ID NO. 57) linker). Cytotoxicity was compared to a naked antibody (antibody without a lytic peptide) in Her-2 receptor positive cells (SKBR-3 and SKOV-3, human breast and ovarian cancer cells, respectively) and Her-2 receptor negative breast cancer cells (MDA-MB-231).
(§2) Cells were prepared in 96 well plates using 2,000 cells/well and were allowed to attach for 48 hours. […] All data were processed and analyzed using Graph Pad Prizm 4™ software (Graph Pad Prizm, Inc).

[2] = system: Her2 receptor positive SKBR-3 cancer cells; test: In vitro cytotoxicity, MTT assay, 48 h, SKBR-3
Method: as §1, §2

[3] = system: Her2 receptor negative MDA-MB-231 cancer cells; test: In vitro cytotoxicity, MTT assay, 48 h, MDA-MB-231
Method: as §1, §2

KFAKFAKKFAKFAKKFAK [Phor-18, KFAKFAK KFAKFAK KFAK]
very minimal non-specific cytotoxicity: cytotoxicity to SKOV-3 cells (in words) [1] | cytotoxicity to SKBR-3 cells (in words) [2] | cytotoxicity to MDA-MB-231 cells (in words) [3]
